Experimental data taken from article PMC9501633, “Synthesis, Characterisation and Mechanism of Action of Anticancer 3-Fluoroazetidin-2-ones” (Pharmaceuticals, 2022).

Assays:
SNB-19 = test: NCI 60 cell line screen, CNS; format: cell-based, human; conditions: one dose 10 µM; for inhibition at 10 µM: Homo sapiens
leukaemia panel = test: NCI 60 cell line one-dose screen, panel mean; format: cell-based; conditions: Homo sapiens, one dose 10 μM, read-out: mean growth inhibition
Procedure: The antiproliferative effects of selected compounds 33, 37 and 43 were initially evaluated in the NCI 60 cell line screen at 10 μM concentration (see Supplementary Materials Table S3).
(§1) aData obtained from NCI in vitro human tumour cell screen 1 dose assay (10 µM). 33 (NCI

U251 = test: NCI 60 cell line screen, CNS; format: cell-based, human; conditions: for inhibition at 10 µM: Homo sapiens, U-251, one dose 10 µM; for Growth %: one dose 10 µM
HCT-116 = test: NCI 60 cell line screen, Colon; format: cell-based, human; conditions: one dose 10 µM; for inhibition at 10 µM: Homo sapiens
MDA-MB-231/ATCC = test: NCI 60 cell line screen, Breast; format: cell-based, human; conditions: one dose 10 µM; for inhibition at 10 µM: Homo sapiens
NCI 60 cell line panel = test: NCI 60 cell line screen, whole panel; format: cell-based; conditions: for inhibition at 10 µM: Homo sapiens, 60 cell, one dose 10 μM, mean over the 60 cell lines, read-out: mean growth inhibition; for mean Growth %: one dose 10 µM, mean over the cell lines
Procedure: The antiproliferative effects of selected compounds 33, 37 and 43 were initially evaluated in the NCI 60 cell line screen at 10 μM concentration (see Supplementary Materials Table S3). […] . […] .
Compound 33 was next selected for evaluation in the NCI 60 cell line five-dose screen. The GI50 (50% growth inhibition), TGI (total growth inhibition) and LC50 (50% lethal concentration) were determined in the NCI panel of 60 cell lines, using the sulphorhodamine B (SRB) protein assay (Table 5). The GI50 value provides the growth inhibition of the selected compound, while the cytotoxic effect is evaluated in the LC50 value. […] . […] . Glioblastoma is an aggressive and fast-growing brain tumour with a median survival time of 9–16 months from diagnosis, and these tumours quickly evolve resistance to temozolomide chemotherapy, which is the only FDA-approved treatment. […] . Further mechanistic and cellular studies were carried out and are described below.
as §1

T-47D = test: NCI 60 cell line screen, Breast; format: cell-based, human; conditions: one dose 10 µM; for inhibition at 10 µM: Homo sapiens, T47D
LOX IMVI = test: NCI 60 cell line screen, Melanoma; format: cell-based, human; conditions: one dose 10 µM; for inhibition at 10 µM: Homo sapiens
CCRF-CEM = test: NCI 60 cell line screen, Leukaemia; format: cell-based, human; conditions: one dose 10 µM; for inhibition at 10 µM: Homo sapiens
SK-MEL-28 = test: NCI 60 cell line screen, Melanoma; format: cell-based, human; conditions: one dose 10 µM; for inhibition at 10 µM: Homo sapiens
SF-539 = test: NCI 60 cell line screen, CNS; format: cell-based, human; conditions: one dose 10 µM; for inhibition at 10 µM: Homo sapiens
HS 578T = test: NCI 60 cell line screen, Breast; format: cell-based, human; conditions: one dose 10 µM; for inhibition at 10 µM: Homo sapiens
SK-MEL-5 = test: NCI 60 cell line screen, Melanoma; format: cell-based, human; conditions: one dose 10 µM; for inhibition at 10 µM: Homo sapiens

| Structure (SMILES) | inhibition at 10 µM (SNB-19) | Growth % (SNB-19) | inhibition at 10 µM (leukaemia panel) | inhibition at 10 µM (U251) | Growth % (U251) | inhibition at 10 µM (HCT-116) | Growth % (HCT-116) | inhibition at 10 µM (MDA-MB-231/ATCC) | Growth % (MDA-MB-231/ATCC) | inhibition at 10 µM (NCI 60 cell line panel) | mean Growth % (NCI 60 cell line panel) | inhibition at 10 µM (T-47D) | Growth % (T-47D) | inhibition at 10 µM (LOX IMVI) | Growth % (LOX IMVI) | inhibition at 10 µM (CCRF-CEM) | Growth % (CCRF-CEM) | inhibition at 10 µM (SK-MEL-28) | Growth % (SK-MEL-28) | inhibition at 10 µM (SF-539) | further results |
| --- | --- | --- | --- | --- | --- | --- | --- | --- | --- | --- | --- | --- | --- | --- | --- | --- | --- | --- | --- | --- | --- |
| CCOc1ccc(C2N(c3cc(OC)c(OC)c(OC)c3)C(=O)C2(F)F)cc1 (centres unmarked) [Compound 37, 4-(4-Ethoxyphenyl)-3,3-difluoro-1-(3,4,5-trimethoxyphenyl)azetidin-2-one] | 45.9% | 54.14% | 91.4% | 63.8% | 36.19% | 91.1% | 8.92% | 53.9% | 46.12% | 59% | 41.05% | 30% | 70.03% | 72.4% | 27.57% | 89.8% | 10.2% | 33.2% | 66.8% | 89.2% | Growth % (SF-539): 10.75%; inhibition at 10 µM (HS 578T): 62.6%; Growth % (HS 578T): 37.42%; inhibition at 10 µM (SK-MEL-5): 93.2%; Growth % (SK-MEL-5): 6.76% |
| COc1ccc(C2N(c3cc(OC)c(OC)c(OC)c3)C(=O)C2(F)F)cc1F (centres unmarked) [Compound 43, 3,3-Difluoro-4-(3-fluoro-4-methoxyphenyl)-1-(3,4,5-trimethoxyphenyl)azetidin-2-one] | 47.1% | 52.93% | 86.3% | 58.4% | 41.61% | 94.2% | 5.76% | 46% | 54.02% | 56.4% | 43.57% | 34.3% | 65.69% | 72.9% | 27.06% | 87% | 12.96% | 22.8% | 77.22% | 78.3% | Growth % (SF-539): 21.65%; inhibition at 10 µM (HS 578T): 78.1%; Growth % (HS 578T): 21.93%; inhibition at 10 µM (SK-MEL-5): 91.9%; Growth % (SK-MEL-5): 8.08% |
